Results reported in patent US4536505A, “Certain N-(pyridyl) indoles” (Ciba-Geigy Corporation, priority 1983, dated 1985).

Experiments:
[1] = molecular target: T1, thromboxane synthetase (Homo sapiens, UniProt P24557); test: in vitro inhibition of the thromboxane synthetase enzyme; assay type: biochemical, human (lysed human platelets); conditions: 30 minutes incubation; ratio T×B2/PGF2 α+β reduced to 50% of control
T1 construct: crude microsomal preparation of thromboxane synthetase from lysed human platelets; from tissue; host or cells: lysed human platelets, crude microsomal preparation
T1 sequence (P24557 1-533): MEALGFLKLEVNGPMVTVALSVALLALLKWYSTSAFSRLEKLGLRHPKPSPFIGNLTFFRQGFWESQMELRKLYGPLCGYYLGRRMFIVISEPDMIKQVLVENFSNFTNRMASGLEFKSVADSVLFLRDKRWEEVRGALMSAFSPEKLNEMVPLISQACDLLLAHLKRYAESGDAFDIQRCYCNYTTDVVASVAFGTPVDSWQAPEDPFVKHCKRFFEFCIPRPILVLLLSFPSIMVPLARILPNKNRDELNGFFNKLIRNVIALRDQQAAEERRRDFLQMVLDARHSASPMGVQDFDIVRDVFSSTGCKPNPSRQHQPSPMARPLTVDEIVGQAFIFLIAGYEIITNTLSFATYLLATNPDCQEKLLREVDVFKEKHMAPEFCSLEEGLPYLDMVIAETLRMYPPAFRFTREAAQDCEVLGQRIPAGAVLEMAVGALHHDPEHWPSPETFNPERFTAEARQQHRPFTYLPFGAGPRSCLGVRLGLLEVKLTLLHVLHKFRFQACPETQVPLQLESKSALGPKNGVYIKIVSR
Description: Res. Comm. 74, 1432 (1977); the testing procedure is as follows: ^14 C-Arachidonic acid is incubated with an enzyme consisting of solubilized and partially purified prostaglandin cyclo-oxygenase from sheep seminal vesicles and a crude microsomal preparation of thromboxane synthetase from lysed human platelets. The test compound (dissolved in buffer, or if necessary, in a small amount of ethanol) is added to the incubation medium. At the end of the incubation period (30 minutes), Prostaglandin E2 (PGE2) is reduced to a mixture of Prostaglandin F2 α and F2 β (PGF2 α+β) by addition of sodium borohydride. The radioactive products and excess substrate are extracted into ethyl acetate; the extract is evaporated to dryness; the residue is dissolved in acetone, spotted on thin-layer plates and chromatographed in the solvent system toluene:acetone:glacial acetic acid (100 volumes:100 volumes:3 volumes). The radioactive zones are located; those corresponding to Thromboxane B2 (T×B2) and PGF2 α+β are transferred to liquid scintillation vials and counted. The ratio of counts for T×B2 /PGF2 α+β is calculated for each concentration of test compound and IC50 values are determined graphically as the concentration of test compound at which the ratio of T×B2 /PGF2 α+β is reduced to 50% of the control value.

[2] = molecular target: T2, lipoxygenase (Cavia porcellus, UniProt A0A286X958); test: lipoxygenase inhibition in guinea pig peritoneal neutrophils; assay type: cell-based; conditions: 14C-arachidonic acid (4 μM), A-23187 (2 μM), 37° C.; LTB4 and 5-HETE
T2 construct: Guinea pig peritoneal neutrophils; endogenous in cells; host or cells: guinea pig peritoneal neutrophils (elicited with sodium caseinate)
T2 sequence (A0A286X958 1-674): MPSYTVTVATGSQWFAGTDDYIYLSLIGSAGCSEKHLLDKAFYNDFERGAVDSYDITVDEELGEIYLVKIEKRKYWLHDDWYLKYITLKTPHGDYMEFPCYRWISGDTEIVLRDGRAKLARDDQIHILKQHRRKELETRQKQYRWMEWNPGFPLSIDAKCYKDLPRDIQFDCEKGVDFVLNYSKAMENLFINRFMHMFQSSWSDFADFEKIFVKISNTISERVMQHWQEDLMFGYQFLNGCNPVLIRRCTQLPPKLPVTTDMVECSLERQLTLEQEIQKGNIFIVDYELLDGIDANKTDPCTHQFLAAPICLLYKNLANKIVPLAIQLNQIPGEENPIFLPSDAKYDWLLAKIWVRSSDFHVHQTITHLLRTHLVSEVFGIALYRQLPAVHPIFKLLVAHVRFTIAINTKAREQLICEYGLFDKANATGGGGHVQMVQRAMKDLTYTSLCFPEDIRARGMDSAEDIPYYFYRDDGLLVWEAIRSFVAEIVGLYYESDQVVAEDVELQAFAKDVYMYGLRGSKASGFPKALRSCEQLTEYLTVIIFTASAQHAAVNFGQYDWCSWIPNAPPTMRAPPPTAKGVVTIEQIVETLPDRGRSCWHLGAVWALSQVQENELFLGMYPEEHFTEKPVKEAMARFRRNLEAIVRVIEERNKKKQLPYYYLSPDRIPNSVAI
Description: Guinea pig peritoneal neutrophils (elicited by an i.p. injection of sodium caseinate 17 hours prior to harvesting) are preincubated with indomethacin (1 μM) and test drugs for 5 minutes at 37° C. ^14 C-arachidonic acid (4 μM) and calcium ionophore A-23187 (2 μM) are added and the samples are incubated for another 5 minutes at 37° C. The reaction is terminated by the addition of 1N HCl and the products are extracted with ethyl acetate and separated by thin-layer chromatography; the plates are scanned and the radioactive zones corresponding to LTB4 and 5-HETE are scraped off, transferred to liquid scintillation vials and counted for radioactivity.

[3] = molecular target: T3, prostaglandin cyclooxygenase (Ovis aries, UniProt P05979); test: in-vitro effect on prostaglandin cyclooxygenase; assay type: biochemical, sheep (seminal vesicle microsomes); conditions: 50% reduction in the amount of PGE2 synthesized; read-out: IC50 for cyclooxygenase inhibition
T3 construct: Lyophilized sheep seminal vesicle microsomes are utilized as the prostaglandin-synthesizing enzyme preparation; from tissue; host or cells: lyophilized sheep seminal vesicle microsomes
T3 sequence (P05979 25-600): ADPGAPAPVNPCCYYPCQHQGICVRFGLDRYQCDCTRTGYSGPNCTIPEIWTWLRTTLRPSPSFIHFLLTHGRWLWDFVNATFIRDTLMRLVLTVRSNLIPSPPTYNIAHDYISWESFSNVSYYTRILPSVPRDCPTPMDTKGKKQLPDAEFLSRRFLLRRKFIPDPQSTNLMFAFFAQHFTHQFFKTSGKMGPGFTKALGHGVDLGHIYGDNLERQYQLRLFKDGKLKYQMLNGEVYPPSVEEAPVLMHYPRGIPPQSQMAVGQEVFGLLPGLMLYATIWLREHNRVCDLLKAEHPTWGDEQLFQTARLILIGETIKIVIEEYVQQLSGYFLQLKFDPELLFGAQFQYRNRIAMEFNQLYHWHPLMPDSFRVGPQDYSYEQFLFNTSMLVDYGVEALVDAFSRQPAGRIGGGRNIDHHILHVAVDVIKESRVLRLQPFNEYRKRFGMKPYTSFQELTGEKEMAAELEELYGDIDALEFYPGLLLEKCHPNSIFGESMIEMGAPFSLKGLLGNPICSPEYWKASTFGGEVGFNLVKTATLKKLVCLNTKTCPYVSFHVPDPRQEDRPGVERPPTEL
Description: The in-vitro effect on prostaglandin cyclooxygenase is measured by a modification of the method of Takeguchi et al. described in Biochemistry 10, 2372 (1971); the testing procedure is as follows:
Lyophilized sheep seminal vesicle microsomes are utilized as the prostaglandin-synthesizing enzyme preparation. The conversion of ^14 C-arachidonic acid to PGE2 is measured. Test compounds (dissolved in buffer, or if necessary, in a small amount of ethanol) are added to the incubation mixture. The prostaglandins are extracted and separated by thin-layer chromatography; the plates are scanned, the radioactive zones corresponding to PGE2 are transferred to liquid scintillation vials and counted for radioactivity. IC50 values for inhibition are determined graphically as the concentration of test compound causing a 50% reduction in the amount of PGE2 synthesized.

[4] = test system: thromboxane B2; test: in vivo reduction of plasma levels of thromboxane (thromboxane B2) in rats after ionophore A23187; conditions: rat, oral dose of 0.04 mg/kg or lower
Description: (§1) The inhibition of the synthesis and the reduction of plasma levels of thromboxane is determined in vivo on administration to rats in the following manner (as adapted from the procedures described by Tai et al. in Anal. Biochem. 87:343, 1978 and by Salmon in Prostaglandins 15:383, 1978):
(§2) Rats are dosed with vehicle or test drug and injected intravenously with ionophore A23187 (0.5 mg/kg) two hours later. Blood is collected for analysis 2 minutes after the ionophore injection. A single aliquot of each plasma sample is assayed for thromboxane B2 and another aliquot for 6-keto-PGF1 α, the stable metabolites of thromboxane A2 and prostacyclin (PGI2) respectively, by radioimmunoassay.

[5] = test system: prostacyclin; test: in vivo plasma level of prostacyclin (6-keto-PGF1 α) in rats after ionophore A23187; conditions: rat, oral dose of 0.04 mg/kg or lower
Description: as §1, §2

[6] = bleeding time in the rat; assay type: in vivo; conditions: about 1.0 mg/kg p.o.
From the text: Indicative of the utility in thromboembolism, compounds of this invention also prolong bleeding time in the rat.

| IC50 [1] [nM] | IC50 [3] [mM] | Structure (SMILES) | IC50 [2] [µM] | decrease of plasma concentration of thromboxane B2 [4] | increase in the plasma level of prostacyclin [5] | prolongation of bleeding time [6] |
| --- | --- | --- | --- | --- | --- | --- |
| ~1.1 | > 1 | O=C(O)CCCCc1cn(-c2cccnc2)c2ccccc12 [3-(4-carboxybutyl)-N-(3-pyridyl)indole] |  | over 50% | approximately 5 fold | prolongs bleeding time |
| ~4 |  | O=C(O)CCCCCc1cn(-c2cccnc2)c2ccccc12 [3-(5-carboxypentyl)-N-(3-pyridyl)indole] |  |  |  |  |

| Structure (SMILES) | IC50 [1] [nM] | IC50 [3] [mM] | IC50 [2] [µM] | decrease of plasma concentration of thromboxane B2 [4] | increase in the plasma level of prostacyclin [5] | prolongation of bleeding time [6] |
| --- | --- | --- | --- | --- | --- | --- |
| O=C(O)CCCCc1cn(-c2cccnc2)c2ccc(Cl)cc12 [3-(4-carboxybutyl)-5-chloro-N-(3-pyridyl)indole] | ~2.6 |  | ~30 |  |  |  |
